What was measured:
[1] = system: Ruminal epithelial cells (REC); assay: Net urea production by isolated ruminal epithelial cells incubated with ornithine-urea cycle substrate intermediates; type: cell-based, sheep; parameters: net urea production: dose or concentration left out as unconfirmed
Source text: Ruminal epithelial cells (REC) and duodenal mucosal cells (DMC) were harvested from four growing Polypay ram lambs (33.1 plus/minus 4.8 kg body weight) fed a pelleted diet comprised of 55% forage (alfalfa hay) and 45% concentrate (dry ground corn. soybean meal, and premix of minerals and vitamins) ad libitum for at least two weeks before slaughter. All animal procedures were approved by the Beltsville Agricultural Research Center Institutional Animal Care and Use Committee (protocol # 02-008). Gut cells were isolated separately for each sheep following the procedures described by Baldwin and McLeod and Oba et al. Cell viability averaged 73.1% for REC and 82.4% for DMC. […] N-carbamoyl glutamate is a stable analog of […] stimulator of carbamoyl phosphate synthetase. Treatments were arranged in a 2×4 factorial design, and performed in triplicate incubations for each sheep. […] Krebs-Ringer plus 24 mM HEPES and 0.12 M sodium bicarbonate) was oxygenated with O2:CO2 (95:5) and the pH adjusted to 7.4. Incubations were initiated by addition of 0.5 ml of cell suspension (1×10^7 viable cells) to freshly gassed (20 s under 95:5 O2:CO2) media, and flasks were placed into a reciprocal action shaking water bath at 37° C. After 90 min, 0.2 ml of concentrated HClO4 was injected into the flasks to terminate the incubation, followed by addition of 0.3 ml of 5.8 M K2CO3 to neutralize the media. […] See Lobley, G. E. et al., Br. J. Nutr. […] Urea concentration was determined by isotope dilution with gas chromatography-mass spectrometry (HP6890 coupled to an HP5973 Mass Selective Detector, Agilent, Palo Alto, Calif.) essentially according to the known method of Calder et al. See Calder, A. G., Rapid Commun. […] Net urea production was calculated by subtracting background urea present at time 0 (Control) from concentrations after 90-min incubation. Data were analyzed separately for REC and DMC using the Proc Mixed procedure of SAS (SAS Inc., Cary, N.C.) with fixed effect of VFA type, substrate combination, their interactions, and random effect of animals in the model.

[2] = system: duodenal mucosal cells (DMC); assay: Net urea production by isolated duodenal mucosal cells incubated with ornithine-urea cycle substrate intermediates; type: cell-based, sheep; parameters: net urea production: dose or concentration left out as unconfirmed
Source text: Ruminal epithelial cells (REC) and duodenal mucosal cells (DMC) were harvested from four growing Polypay ram lambs (33.1 plus/minus 4.8 kg body weight) fed a pelleted diet comprised of 55% forage (alfalfa hay) and 45% concentrate (dry ground corn. soybean meal, and premix of minerals and vitamins) ad libitum for at least two weeks before slaughter. All animal procedures were approved by the Beltsville Agricultural Research Center Institutional Animal Care and Use Committee (protocol # 02-008). Gut cells were isolated separately for each sheep following the procedures described by Baldwin and McLeod and Oba et al. Cell viability averaged 73.1% for REC and 82.4% for DMC. […] Urea concentration was determined by isotope dilution with gas chromatography-mass spectrometry (HP6890 coupled to an HP5973 Mass Selective Detector, Agilent, Palo Alto, Calif.) essentially according to the known method of Calder et al. See Calder, A. G., Rapid Commun. […] Net urea production was calculated by subtracting background urea present at time 0 (Control) from concentrations after 90-min incubation. Data were analyzed separately for REC and DMC using the Proc Mixed procedure of SAS (SAS Inc., Cary, N.C.) with fixed effect of VFA type, substrate combination, their interactions, and random effect of animals in the model.

SMILES | effect of N-carbamoyl glutamate addition on urea synthesis ([1]; REC, AspONG versus AspON (P=0.11)) | effect of N-carbamoyl glutamate addition on urea synthesis ([2]; AspONG versus AspON (P<0.001)) | net urea production by REC relative to DMC ([1]; REC versus DMC in the presence of arginine) [fold] | net urea production ([1]; REC, 90 min incubation in media, background urea at time 0 subtracted) | net urea production ([2]; 90 min incubation in media, background urea at time 0 subtracted)
NC(=O)N[C@@H](CCC(=O)O)C(=O)O [N-carbamoyl glutamate] | stimulatory effect | stimulatory effect | – | – | –
N=C(N)NCCC[C@H](N)C(=O)O [Arg, arginine] | – | – | 25 | 54.5±6.3 nmoles·10^6 cells^−1 90 min^−1 | 2.1±0.7 nmoles·10^6 cells^−1 90 min^−1

Source: patent publication US7951407B2, “Ruminant feed containing N-carbamoyl glutamate” (University of Maryland, priority 2003, dated 2011)
